We go through 14 compounds from PubChem BioAssay (NCI).

Where “and” joins values, the source holds several entries; their conditions need not be identical. Equal values may be shown once.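 Five concentrations, 48 hours, 96-well plates. At the GI50, growth is halved. TGI denotes the concentration required for complete inhibition of growth.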

Common to all, as to assay: growth of human tumour cells (NCI), 48 h
Assay [1] has as its system UACC-257 melanoma.
Assay [2] deals with ACHN renal.
Assay [3] has as its system SF-539 CNS.
The subject of assay [4] is MDA-MB-231 breast.
The subject of assay [5] is DU-145 prostate.
Assay [6] deals with CCRF-CEM leukemia.
Assay [7] has as its system RPMI-8226 leukemia.
The subject of assay [8] is HT29 colon.
Assay [9] concerns SF-268 CNS.
For assay [10], the system named is OVCAR-3 ovarian.

In the case of `Oc1cc(F)cc2cccnc12`, the TGI was 4.29 µM in assay [1]; > 92.1 µM in assay [2]; 30 µM in assay [3]; 32.9 µM in assay [4]; > 100 µM in [5]; 0.656 µM in assay [6]. For the same compound, the TGI in assay [7] was 1.17 µM; in assay [8], > 36.7 µM.

As to `CNc1cc(Cl)ccc1C(=O)N1CCC[C@H]1CO`, the TGI in assay [1], in assay [2], in assay [3], in [4], in [9] and in assay [5] was > 100 µM each time. Moreover, the TGI in assay [6] and in assay [8] was > 100 µM each time.

As to `O=C1C2CCCCC2C(=O)N1n1c(Cc2ccccc2)n[nH]c1=O` (stereo unspecified), the TGI in assay [1], in assay [2], in [3], in assay [4], in assay [9] and in [6] was > 100 µM throughout. Also, the TGI in [10], in assay [7] and in [8] was > 100 µM each time.

As to `COc1cc([N+](=O)[O-])cc2c1NC(=O)C2(C)SC` (stereo unspecified), the TGI in [1], in assay [2], in assay [4], in [9], in assay [5] and in assay [6] was > 100 µM in each case. Besides, the TGI in [10], in assay [7] and in assay [8] was > 100 µM in each case.

With `COc1cccc(C=C(C#N)C#N)c1OC`, the TGI in [1], in [2], in assay [3], in [9], in [5] and in [6] was > 100 µM in each case. For the same compound, the TGI in [10], in [7] and in [8] was > 100 µM throughout.

For the compound `CN(C)c1ccc(/C=C2\C[C@H]3[C@@H]4CC=C5C[C@@H](O)CC[C@]5(C)[C@H]4CC[C@]3(C)[C@H]2O)cc1`, the TGI in [1] is 35.7 µM; in assay [2], 30.7 µM; in [3], 22.1 µM; in assay [4], 34.5 µM; in [9], 34.8 µM; in [5], > 100 µM. The TGI is 59.8 µM in assay [10], > 100 µM in assay [7] and 27.5 µM in [8].

For `Nc1nc(Cl)cc(NCC2(CO)CC=CC2)n1`, the TGI in [1], in [2], in assay [3], in assay [4], in [9] and in assay [5] was > 100 µM throughout. The TGI in assay [6], in assay [10] and in assay [8] was > 100 µM in each case.

On to `CC(=O)OC1OC(C2c3cccc(O)c3C(=O)c3c(O)cc(CO)cc32)C(O)C(O)C1O` (stereo unspecified), for which the TGI in assay [1] is 32.8 µM and 33.7 µM; in assay [3] it was 4.22 µM and 4.73 µM; in assay [4] it was 7.54 µM and 8.88 µM; in assay [9], 21.8 µM and 33.6 µM; in assay [5] it was > 100 µM and 84.1 µM; in [6], 21.5 µM and 17.9 µM. The TGI in [10] is 22.4 µM and 12.1 µM; in [8], > 100 µM. In addition, the GI50 in assay [4] is 1510 nM and 3400 nM; in [10], 9.16 µM and 3.51 µM.

For the compound `CCOC(=O)COc1cc(-c2ccccc2)nc2cc(F)ccc12`, the TGI in [1], in assay [3], in [4], in assay [9], in [5] and in [6] was > 100 µM throughout. The TGI in [10], in [7] and in assay [8] was > 100 µM throughout.

Regarding `CC(=O)O[C@H]1C(=O)[C@@]2(C)[C@H]([C@H](OC(=O)c3ccccc3)[C@]3(O)C[C@H](OC(=O)[C@H](O)[C@@H](NC(=O)C(C)(O)C(C)O)c4ccccc4)C(C)=C1C3(C)C)[C@]1(OC(C)=O)CO[C@@H]1C[C@@H]2O` (stereo partly specified), the TGI in assay [1] is > 50 µM; in [2], > 50 µM; in assay [3] it was 0.49 µM; in assay [4], 43.1 µM; in assay [9], > 50 µM; in [5] it was > 12.1 µM. In addition, the values for the TGI in [6], in assay [10] and in assay [7] were > 50 µM, 0.437 µM and > 16.6 µM, respectively.

Turning to `CCOC(=O)CCCOc1cc(-c2ccccc2F)nc2cc3c(cc12)OCO3`, the TGI in assay [1], in assay [3], in assay [4], in assay [9], in assay [5] and in assay [6] was > 100 µM throughout. For the same compound, the TGI was 55.7 µM in assay [10], > 100 µM in assay [7] and > 100 µM in assay [8]. In addition, the GI50 in assay [9] is > 100 µM; in assay [10], 15 µM.

For `CN(C)c1cccc2c(S(=O)(=O)NCCCNCCN)cccc12`, the TGI in assay [1] was > 100 µM; in assay [2], > 100 µM; in assay [3], 49.7 µM; in assay [4], > 100 µM; in assay [9], > 100 µM; in assay [5], > 100 µM. Also, the TGI in assay [6] was 46 µM; in assay [10], > 100 µM; in assay [8] it was > 100 µM.

For the compound `N#CCc1nc(-c2cc3ccc(O)cc3oc2=O)cs1`, the TGI in assay [1], in assay [2], in assay [3], in assay [4], in assay [9] and in [5] was > 100 µM in each case. The TGI in assay [6] is > 100 µM; in [7], 81.2 µM; in assay [8], > 100 µM.

With `COc1ccc(-c2n[nH]c3nc4ccccc4n3c2=O)cc1`, the TGI in assay [1], in assay [2], in [3], in [4], in [9] and in assay [5] was > 100 µM in each case. In addition, the TGI in assay [6] and in [8] was > 100 µM in each case.
